In patent EP2261259B1, “Immunoassay for N-(3-chlorophenyl)piperazine-based anti-depressants” (Randox Laboratories Ltd., priority 2009, dated 2010):
≈ marks a conversion by molar mass, not a printed value.

Test system: antibody of the invention
Assay: Competitive ELISA (antibody-coated microtitre plate, hapten-HRP conjugate, TMB, absorbance at 450 nm)
Type: binding, sheep
Details: for %CR: percentage cross-reactivity based on 100% specificity to nefazodone; for %B/B0: B0 = absorbance at 0 ng/ml; for A450: absorbance at 450 nm; for IC50: standard concentration which produces 50% B/B0
Description: The process of developing an immunoassay is well known to the person skilled in the art. […] The serum from the immunised animal is collected when the antibody titre is sufficiently high. A conjugate is added to a sample containing the target analyte and the raised antibodies, and the conjugate and analyte compete for binding to the antibodies. The process may comprise fixing said serum antibodies to a backing substrate such as a polystyrene solid support or a biochip. The antibodies can be polyclonal or monoclonal. The signal emitted in the immunoassay is proportionate to the amount of conjugate bound to the antibodies which in turn is inversely proportionate to the analyte concentration. The signal can be detected or quantified by comparison with a calibrator.
The resulting immunogens were administered separately to adult sheep on a monthly basis to provide target-specific polyclonal antisera. IgG was extracted from the antisera via Caprylic acid/ammonium sulphate precipitation of immunoglobulin. Microtitre plates (Thermo Scientific, 95029180) were coated with antibody (125µl) in coating buffer (10mM Tris pH 8.5) at 37°C for 2 hours. Antibody was coated at 2.5µg/ml. The plates were then washed. […] The plates were then washed and 125µl of TMB (Randox, 4380-15) was added to each well and left at room temperature for 20mins in the dark. The reaction was stopped using 125µl of 0.2M sulphuric acid. The absorbancies were read at 450nm with an ELISA microplate reader (BIO-TEK Instruments, EL340) and the means calculated. Antibody specificity and sensitivity were then determined

[1] = standard concentration 0.156 ng/ml
[2] = standard concentration 0.313 ng/ml
[3] = standard concentration 0.625 ng/ml
[4] = standard concentration 1.250 ng/ml
[5] = standard concentration 2.500 ng/ml
[6] = standard concentration 5.000 ng/ml
[7] = standard concentration 10.000 ng/ml

SMILES | %CR [%] | %B/B0 [1] [%] | A450 [1] | %B/B0 [2] [%] | A450 [2] | %B/B0 [3] [%] | A450 [3] | %B/B0 [4] [%] | A450 [4] | %B/B0 [5] [%] | A450 [5] | %B/B0 [6] [%] | A450 [6] | %B/B0 [7] [%] | A450 [7] | IC50 [ng/mL]
Clc1cccc(N2CCNCC2)c1 [mCPP, N-(3-chlorophenyl)piperazine] | 46 | 85 | 1.821 | 79 | 1.679 | 72 | 1.534 | 65 | 1.380 | 55 | 1.183 | 48 | 1.027 | 42 | 0.888 | 8.476 (≈ 0.0431 µM)
O=c1n(CCCN2CCN(c3cccc(Cl)c3)CC2)nc2ccccn12 [Trazodone, 2-{3-[4-(3-chlorophenyl)-1-piperazinyl]propyl}-[1,2,4]triazolo[4,3-a]pyridin-3(2H)-one] | 733 | 67 | 1.456 | 58 | 1.271 | 48 | 1.041 | 35 | 0.763 | 25 | 0.551 | 18 | 0.398 | 13 | 0.287 | –
CCc1nn(CCCN2CCN(c3cccc(Cl)c3)CC2)c(=O)n1CCOc1ccccc1 [Nefazodone, 2-{3-[4-(3-chlorophenyl)-1-piperazinyl]propyl}-5-ethyl-4-(2-phenoxyethyl)-1,2,4-triazol-3-one] | 100 | 91 | 1.850 | 83 | 1.671 | 73 | 1.467 | 58 | 1.168 | 46 | 0.923 | 34 | 0.683 | 24 | 0.494 | 3.901 (≈ 0.0083 µM)
